Consider 82 compounds from the METLIN SMRT retention time set (Domingo-Almenara et al. 2019).

Molecules are shown by their SMILES.

A short description of the data set: gradient 5% acetonitrile 3 min, to 50% in 2 min, to 85% in 15 min, held 3 min, 100 µL/min. The settings on record: column: Zorbax Extend-C18 2.1 x 50 mm; eluents: water / acetonitrile, 0.1% formic acid. In a few lines: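 Pure standards were run in mixtures of ~100 molecules by HPLC coupled to a quadrupole time-of-flight mass spectrometer. The column was a Zorbax Extend-C18 (2.1 × 50 mm, 1.8 μm) at 100 μL/min, with water and acetonitrile each containing 0.1% formic acid, in positive and negative ionization mode. Dead and dwell volumes were 40 μL and 900 μL. Retention time was taken from computationally picked adduct peaks, each manually inspected, with data collected over 3 months.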
For `COc1ccc(C(=O)N2CC(n3cc(COCC4CC4)nn3)C2)c(OC)c1`, the RP-LC retention time was determined as 705 s. In turn, `CCOc1ccc(-n2ccnc(NC(=O)Nc3cccc(OC)c3)c2=O)cc1` had an RP-LC retention time of 980 s.

The compound `O=c1c2cnc3nc(-c4ccc(Cl)cc4)nn3c2ccn1CCO` registered an RP-LC retention time of 716 s. In turn, `O=C(Cc1c[nH]c2ccccc12)N1CCC(c2noc(-c3ccccc3)n2)CC1` gave an RP-LC retention time of 914 s. As for `CNC(=O)C1(C)CC(c2ccccc2)=NO1` (configuration not stated), the RP-LC retention time amounted to 693 s. To `CCOC(=O)Nc1nc2c(s1)CN(C(=O)Nc1ccc3c(c1)OCO3)CC2` belongs 670 s.

As to `O=C(C1CCCCC1)N1CCC(F)(C(=O)NC2CC2)CC1`, the RP-LC retention time turned out to be 637 s. As for `COc1ccc(/C=C/c2nc3sc4c(c3c(=O)o2)CCCC4)cc1OC`, the RP-LC retention time is 1250 s. To `O=C(c1ccc(F)cc1)N(CC1CCOC1)C1CC1` (configuration not stated) belongs 747 s. Compound `COCCN1C(=O)Cc2ccccc2C1C(=O)NCc1cccs1` (configuration not stated) registered an RP-LC retention time of 715 s. Regarding `Cc1ccc(Cn2cccc2C(=O)C(=O)N2CCN(c3ccccn3)CC2)cc1C`, the RP-LC retention time was 726 s. Next, `CCc1ccccc1N1C(=O)CN(S(C)(=O)=O)CC1(C)C(=O)NCc1ccc(C)cc1` (configuration not stated): 860 s; `O=C(Nc1nnc(CCS(=O)(=O)c2ccccc2)o1)C1COc2ccccc2O1` (configuration not stated): 686 s; `CCNC(=O)CN1c2ccc(F)cc2-c2ccccc2S1(=O)=O`: 786 s.

`O=C(C1CC1)N1CCc2sc(S(=O)(=O)Nc3cccc(Cl)c3)cc2C1` displayed an RP-LC retention time of 879 s. `CCCn1cc(C(=O)Nc2ccccc2CC)c2cccnc21` returned an RP-LC retention time of 919 s. Consider `O=C(Cn1ncc2c(N3CCN(c4ccccn4)CC3)ncnc21)Nc1ccc(OC(F)(F)F)cc1`, for which the RP-LC retention time is 660 s. Regarding `Cc1ccccc1-c1noc(CN2N=NC3C(=O)N(c4ccc5c(c4)CCC5)C(=O)C32)n1` (configuration not stated), the RP-LC retention time is 1120 s.

With `COc1ccc(CC(=O)NCC2CCN(C(=O)c3cc4ccccc4o3)CC2)cc1OC`, the RP-LC retention time was 703 s. To `CC1CCCN(CCCNC(=O)c2cc(=O)n3c(nc4ccccc43)s2)C1` (configuration not stated) belongs 638 s.

For `CCN1CCN(S(=O)(=O)c2cccc(-c3nnc(-c4ccc(C)cc4)o3)c2)CC1`, the RP-LC retention time worked out at 682 s. To `CCCN(CC1CCOC1)C(=O)Nc1cc(F)ccc1F` (configuration not stated) belongs 844 s.

With `CC(=O)NCC(=O)NCc1nn(CC(C)C)c2ccccc12`, the RP-LC retention time came out at 670 s. To `CC1Cc2cc(S(=O)(=O)N3CCC(C(N)=O)(N4CCCCC4)CC3)ccc2N1C(=O)C1CC1` (configuration not stated) belongs 630 s; to `O=C(CN1CC(c2nc(-c3cccc(Cl)c3)no2)C1)NCC1CCCO1` (configuration not stated), 590 s.

The compound `COc1ccc(-c2ccc(CNc3ncn[nH]3)o2)cc1Cl` displayed an RP-LC retention time of 673 s. The compound `Cc1cc(C(=O)N2CCC(c3nc4ccccc4s3)CC2)n(C)n1` displayed an RP-LC retention time of 715 s. Regarding `O=C(Cn1cccc1-c1nc(-c2ccc3c(c2)OCO3)no1)Nc1ccccc1`, the RP-LC retention time came out at 1140 s. To `O=C(Nc1ccc(F)cc1)c1ccc(Br)s1` belongs 935 s. Next, `COC(=O)c1cc(OCC(=O)Nc2ccc(OC)cc2)c2cc(F)ccc2n1`: 796 s.

`Cc1ccccc1C(=O)Nc1nnc(SCc2nnc(-c3ccccc3C)o2)s1` returned an RP-LC retention time of 948 s. For the compound `COCC(C)(O)CNC(=O)Nc1c(F)cccc1F` (configuration not stated), the RP-LC retention time amounted to 595 s. Next, `CCCN(CC1CCOC1)S(=O)(=O)c1ccccc1C` (configuration not stated): 904 s; `Cc1cccc(-c2cc3n(n2)CCCN(C(=O)COc2ccc(Cl)cc2)C3)c1`: 1010 s.

`Cc1nc(S(=O)(=O)N2CCC(C(=O)N3CCN(c4ccccc4)CC3)CC2)cn1C` returned an RP-LC retention time of 687 s.

As for `COc1ccc(OC)c(S(=O)(=O)N2[C@H]3CC[C@@H]2c2cnc(-c4ccccc4)nc2C3)c1`, the RP-LC retention time came to 1020 s. Next, `O=C(Nc1nnc(-c2cc(Cl)sc2Cl)o1)c1ccc([N+](=O)[O-])o1`: 866 s; `Cc1ccc(-c2nnc(-c3cccc(S(=O)(=O)NC(C)C)c3)o2)cc1`: 984 s; `Cc1noc(C)c1CNC(=O)c1ccc(C#N)cc1`: 675 s. To `Cc1cccc(CCNC(=O)C2CCN(S(=O)(=O)N3CCOCC3)CC2)c1` belongs 769 s. The compound `CCN1C(=O)c2cccnc2Sc2cc(NC(=O)c3cccc(F)c3)ccc21` had an RP-LC retention time of 844 s. For `Cc1ccccc1NC(=O)Cn1nc(C(=O)N2CCOCC2)c2ccccc21`, the RP-LC retention time was 735 s. `COc1ccc(-c2noc(C3CC(=O)N(c4ccc(C)c(F)c4)C3)n2)c(OC)c1` (configuration not stated) displayed an RP-LC retention time of 948 s. Next, `COc1cc(C2C(=O)N(C3CCCCC3)CC(=O)N2Cc2ccco2)ccc1OC(C)C` (configuration not stated): 964 s. Turning to `CCN1CCn2cc(S(=O)(=O)Nc3ccc(OC)cc3)cc2C1=O`, the RP-LC retention time was found to be 684 s. Take `COC(=O)Nc1nc2ccc(C(=O)c3ccc(F)cc3)cc2[nH]1`: the RP-LC retention time was found to be 864 s. Next, `Cc1nnc2cc(N3CCN(C(=O)Nc4cccc(Br)c4)CC3)cnn12`: 562 s; `CNC(=O)N1CCCN(C2=NS(=O)(=O)C(c3ccc(Cl)cc3)=C2C)CC1`: 703 s. `Cc1cc(S(=O)(=O)N2C[C@@H](F)C[C@H]2C(=O)N2CCc3ccccc3C2)ccc1Cl` had an RP-LC retention time of 1020 s.

Consider `CCCNC(=O)C1CC(=O)N(c2ccc3c(c2)CCN3C(=O)C2CC2)C1` (configuration not stated), for which the RP-LC retention time worked out at 659 s. As to `COCCNC(=O)C1CCCN(c2cnc3nc(C)c(C)nc3c2)C1` (configuration not stated), the RP-LC retention time is 602 s. Next, `Cc1ccc(Cl)cc1NC(=O)N1CCc2nc(-c3ccccc3)ncc2C1`: 783 s.

In the case of `O=C1NCCCCCCN(C(=O)c2ccco2)[C@H]2C[C@H](C(=O)N3CCc4ccccc4C3)C[C@@H]12`, the RP-LC retention time worked out at 824 s. To `CCOc1ccccc1NC(=O)NCC(c1cccnc1)c1cn(C)c2ccccc12` (configuration not stated) belongs 753 s. `CCCC(=O)Nc1ccc(-n2cnc(C(=O)N3CCSCC3)c2)nc1` showed an RP-LC retention time of 671 s.

`c1ccc(Cn2cc(-c3noc(-c4ccccc4)n3)nn2)cc1` displayed an RP-LC retention time of 814 s. `CCOc1ccccc1NC(=O)Nc1ccc2c(c1)CC(=O)N2` yielded an RP-LC retention time of 675 s.

`CCCCC(C(=O)O)C(C)CC(=O)Nc1nc(-c2ccccc2)cs1` (configuration not stated) returned an RP-LC retention time of 982 s.

Compound `Cc1sc(C)c(S(=O)(=O)N2CCC(C)CC2)c1-c1cc(C(F)(F)F)on1` yielded an RP-LC retention time of 1320 s.

Regarding `CCOC(=O)c1c[nH]c2ccc(NC(C)=O)cc2c1=O`, the RP-LC retention time is 557 s. Compound `COc1cc(-c2nc3ncccn3c2NC2CCC(C)CC2)ccc1OC(C)C` (configuration not stated) yielded an RP-LC retention time of 868 s. Compound `CCOC(=O)c1c(S(=O)(=O)N2CCC(C(=O)Nc3ccc(C)c(F)c3)CC2)c(C)n(C)c1C` yielded an RP-LC retention time of 924 s.

`CN(C)C(=O)c1csc(N2CCN(c3cccc(Cl)c3)CC2)n1`: the RP-LC retention time was determined as 949 s. `COc1ccc(OC)c(C(O)CN2CCN(c3ccc(C)cc3)CC2)c1` (configuration not stated) gave an RP-LC retention time of 653 s. To `COc1ccc2c(c1)c(CC(=O)O)c(C)n2Cc1ccc(Cl)cc1` belongs 1060 s; to `CC(=O)Nc1cccc(NC(=O)C2CC(=O)N(c3n[nH]c4cccc(F)c34)C2)c1` (configuration not stated), 644 s; to `CCCN1CCN(CCCNC(=O)C2CCN(Cc3cn(C)c4ccc(Cl)cc34)CC2)CC1`, 541 s. `CCC(=O)Nc1nnc(SCc2nnc(-c3ccccc3)o2)s1` displayed an RP-LC retention time of 739 s. Next, `CSc1ccc2c(c1)C(N1CCN(C)CC1)Cc1ccccc1S2` (configuration not stated): 869 s; `Cc1ccc2c(c1)N(Cc1nc(-c3ccc(Cl)cc3)no1)C(=O)CO2`: 1130 s. To `CCN1CCN(C(=O)CN2c3ccc(Br)cc3-c3ccccc3S2(=O)=O)CC1` belongs 670 s; to `Cc1ccc(Sc2ccccc2N2CCNCC2)c(C)c1`, 869 s; to `COc1cc(-c2noc(Cn3c(=O)n(-c4ccccc4)c(=O)c4sccc43)n2)cc(OC)c1OC`, 868 s. Next, `Cc1nn(-c2ccccc2)c2sc(C(=O)NC(C)C)cc12`: 966 s; `C=CCNC(=O)Cc1cn2cc(Br)ccc2n1`: 557 s; `Cc1sc(C)c(S(=O)(=O)Nc2ccccc2F)c1-c1cc(C(F)(F)F)on1`: 1130 s. Compound `CC1=C(C(=O)OCCC#N)C(c2ccccc2F)NC(=O)N1` (configuration not stated) gave an RP-LC retention time of 645 s. `O=C(c1ccccc1C(F)(F)F)N1CCc2nc(-c3ccc(Cl)cc3)ncc2C1` came in with an RP-LC retention time of 1060 s. In the case of `CNC(=O)[C@@H]1C[C@H](Oc2ccccc2)CN1C(=O)C1CCC1`, the RP-LC retention time was determined as 680 s. Compound `CCn1cc(-c2nc(C(=O)N3CCc4ccccc43)cs2)c2cccnc21` gave an RP-LC retention time of 1080 s. `COc1ccc(OC)c(NC(=O)CN2CCc3[nH]c4c(C)c(C)ccc4c(=O)c3C2)c1` returned an RP-LC retention time of 642 s. In turn, `Brc1cccc(-c2nc3ncccn3c2NCc2ccccc2)c1` returned an RP-LC retention time of 860 s.
